target: T1, mouse Nurr1 receptor (Mus musculus, UniProt Q06219); experiment: In vitro activity on N2A cells (NBRE-luciferase reporter); format: cell-based; conditions: N2A-8NBRE cells, 24 hours incubation
T1 construct: a cell line (N2A) endogenously expressing the mouse Nurr1 receptor; host or cells: Neuro-2A (N2A) mouse neuroblastoma cells stably transfected with 8NBRE-luciferase
Description: The activity of the compounds according to the invention was evaluated on a cell line (N2A) endogenously expressing the mouse Nurr1 receptor and stably transfected with the NOT binding response element (NBRE) coupled to the luciferase reporter gene. The EC50 values are between 0.01 and 1000 nM. The tests were carried out according to the procedure described below.
The Neuro-2A cell line comes from a standard commercial source (ATCC). The Neuro-2A clone was obtained from a spontaneous tumour originating from a mouse A albino strain produced by R. J Klebe et al. This Neuro-2A line is subsequently stably transfected with 8NBRE-luciferase. The N2A-8NBRE cells are cultured at a confluence in 75 cm^2 culture flasks containing DMEM supplemented with 10% of foetal calf serum, 4.5 g/l of glucose and 0.4 mg/ml of geneticin. After one week of culture, the cells are recovered with 0.25% trypsin for 30 seconds, and then resuspended in DMEM without phenol red, containing 4.5 g/l of glucose and 10% of Hyclone defatted serum, and deposited in white, transparent-bottom, 96-well plates. The cells are deposited in a proportion of 60 000 per well in 75 μl for 24 hours before the addition of the products. The products are applied in 25 μl and incubated for a further 24 hours. On the day of the measurement, an equivalent volume (100 μl) of Steadylite, is added to each well, followed by a waiting period of 30 minutes in order to obtain complete lysis of the cells and maximum production of the signal. The plates are then measured in a microplate luminescence counter after having been sealed with an adhesive film. The products are prepared in the form of a stock solution at 10^−2 M, and then diluted in 100% of DMSO. Each product concentration is diluted beforehand in culture medium before incubation with the cells thus containing a final concentration of 0.625% of DMSO.

T1 sequence (Q06219 whole entry): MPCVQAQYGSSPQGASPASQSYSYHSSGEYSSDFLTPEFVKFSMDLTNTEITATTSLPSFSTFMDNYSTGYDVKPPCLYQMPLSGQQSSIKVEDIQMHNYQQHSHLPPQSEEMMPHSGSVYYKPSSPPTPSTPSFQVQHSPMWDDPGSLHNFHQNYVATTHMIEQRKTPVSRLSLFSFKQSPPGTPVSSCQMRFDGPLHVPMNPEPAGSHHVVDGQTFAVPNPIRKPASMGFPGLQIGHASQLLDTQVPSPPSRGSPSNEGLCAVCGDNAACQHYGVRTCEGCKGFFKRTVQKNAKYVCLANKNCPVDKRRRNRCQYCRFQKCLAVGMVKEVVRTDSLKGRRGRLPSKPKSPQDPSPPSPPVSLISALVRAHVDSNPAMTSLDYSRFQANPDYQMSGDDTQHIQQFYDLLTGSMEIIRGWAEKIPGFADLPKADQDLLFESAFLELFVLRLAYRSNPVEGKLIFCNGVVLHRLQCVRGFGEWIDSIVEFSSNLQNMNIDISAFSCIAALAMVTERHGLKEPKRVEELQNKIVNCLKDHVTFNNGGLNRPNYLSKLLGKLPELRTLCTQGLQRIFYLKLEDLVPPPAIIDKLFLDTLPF

| EC50 | SMILES |
| --- | --- |
| 700 pM | Nc1cccc(-c2ccc3nc(C(=O)c4ccccc4)cn3c2)n1 [Compound 1, [6-(6-Aminopyridin-2-yl)imidazo[1,2-a]pyridin-2-yl](phenyl)-methanone] |
| 500 pM | O=C(c1ccccc1)c1cn2cc(-c3cn[nH]c3)ccc2n1 [Compound 4, Phenyl[6-(1H-pyrazol-4-yl)imidazo[1,2-a]pyridin-2-yl]methanone] |
| 500 pM | O=C(c1ccccc1)c1cn2cc(-c3cccnc3)ccc2n1 [Compound 7, phenyl[(6-pyridin-3-yl)imidazo[1,2-a]pyridin-2-yl]methanone] |
